Source: US10231954B2, “Neurodegenerative therapies” (LYTIX BIOPHARMA AS, priority 2014, dated 2019)

Assays:
Format in all cases: biochemical
JNK3 = JNK3 (Homo sapiens, UniProt P53779); experiment: Kinase profiling JNK3; conditions: for residual kinase activity, JNK3: 100 micromolar inhibitor concentration, 100 is no change
Excerpt: (§1) Any value less that 25 is considered to be highly significant inhibition.

Src = Src (Homo sapiens, UniProt P12931); experiment: Kinase profiling Src
Excerpt: as §1

TrkA = TrkA (Homo sapiens, UniProt P04629); experiment: Kinase profiling TrkA
Excerpt: as §1

MKK2 = MKK2 (Homo sapiens, UniProt P36507); experiment: Kinase profiling MKK2; conditions: for residual kinase activity, MKK2: 100 micromolar inhibitor concentration, 100 is no change
MKK2, sequence (P36507 whole entry, species assumed): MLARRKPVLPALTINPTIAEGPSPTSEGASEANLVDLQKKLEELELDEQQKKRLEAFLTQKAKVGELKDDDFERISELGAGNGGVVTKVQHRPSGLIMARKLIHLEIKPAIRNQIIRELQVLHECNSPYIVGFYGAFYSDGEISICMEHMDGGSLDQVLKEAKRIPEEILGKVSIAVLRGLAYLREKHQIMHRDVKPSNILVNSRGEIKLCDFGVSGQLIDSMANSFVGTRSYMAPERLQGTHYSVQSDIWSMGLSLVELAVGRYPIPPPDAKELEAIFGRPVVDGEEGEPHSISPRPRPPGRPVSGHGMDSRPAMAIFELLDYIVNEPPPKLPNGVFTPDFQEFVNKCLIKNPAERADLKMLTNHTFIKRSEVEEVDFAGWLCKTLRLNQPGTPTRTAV
Excerpt: as §1

SGK1 = target: T1, SGK1 (Homo sapiens, UniProt O00141); experiment: Kinase profiling SGK1
T1 sequence (O00141 1-431): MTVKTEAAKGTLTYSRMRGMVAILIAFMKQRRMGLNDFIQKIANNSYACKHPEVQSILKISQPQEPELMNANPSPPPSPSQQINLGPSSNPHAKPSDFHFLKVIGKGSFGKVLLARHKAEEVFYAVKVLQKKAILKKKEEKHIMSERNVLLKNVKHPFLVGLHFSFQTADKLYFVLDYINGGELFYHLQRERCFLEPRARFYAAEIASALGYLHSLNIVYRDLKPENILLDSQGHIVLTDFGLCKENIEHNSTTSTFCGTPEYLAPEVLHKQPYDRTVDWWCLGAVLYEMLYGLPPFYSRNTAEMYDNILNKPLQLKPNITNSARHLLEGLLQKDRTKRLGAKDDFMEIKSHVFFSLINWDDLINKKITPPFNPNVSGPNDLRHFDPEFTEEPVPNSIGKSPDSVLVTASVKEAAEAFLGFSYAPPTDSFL
Excerpt: as §1

MKK1 = MKK1 (Homo sapiens, UniProt Q02750); experiment: Kinase profiling MKK1
MKK1, sequence (Q02750 whole entry, species assumed): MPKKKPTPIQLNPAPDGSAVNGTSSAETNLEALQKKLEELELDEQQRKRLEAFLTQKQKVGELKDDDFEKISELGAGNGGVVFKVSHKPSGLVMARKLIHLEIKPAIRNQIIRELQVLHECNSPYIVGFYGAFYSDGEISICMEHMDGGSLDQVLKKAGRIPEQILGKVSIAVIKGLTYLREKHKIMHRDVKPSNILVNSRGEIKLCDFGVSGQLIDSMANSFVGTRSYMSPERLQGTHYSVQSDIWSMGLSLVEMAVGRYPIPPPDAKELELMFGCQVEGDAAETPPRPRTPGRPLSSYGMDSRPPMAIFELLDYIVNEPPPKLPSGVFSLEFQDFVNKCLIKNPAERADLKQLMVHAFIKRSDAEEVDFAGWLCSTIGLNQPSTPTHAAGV
Excerpt: as §1

EF2K = EF2K (Homo sapiens, UniProt O00418); experiment: Kinase profiling EF2K
Excerpt: as §1

PKBa = PKBa (Homo sapiens, UniProt P31749); experiment: Kinase profiling PKBa
PKBa, sequence (P31749 whole entry): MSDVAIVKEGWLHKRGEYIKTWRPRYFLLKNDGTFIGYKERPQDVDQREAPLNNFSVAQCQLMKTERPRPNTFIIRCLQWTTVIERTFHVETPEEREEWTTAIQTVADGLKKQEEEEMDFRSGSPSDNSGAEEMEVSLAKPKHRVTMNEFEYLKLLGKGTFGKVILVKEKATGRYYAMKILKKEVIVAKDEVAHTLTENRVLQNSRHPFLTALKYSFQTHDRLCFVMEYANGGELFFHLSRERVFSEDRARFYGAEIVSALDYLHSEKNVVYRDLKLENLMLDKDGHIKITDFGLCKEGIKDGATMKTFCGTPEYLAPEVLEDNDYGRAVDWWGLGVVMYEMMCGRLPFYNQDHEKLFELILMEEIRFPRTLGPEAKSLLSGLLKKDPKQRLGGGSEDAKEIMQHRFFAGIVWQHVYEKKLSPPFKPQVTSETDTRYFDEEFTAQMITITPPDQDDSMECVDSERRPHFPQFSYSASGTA
Excerpt: as §1

PIM1 = PIM1 (Homo sapiens, UniProt P11309); experiment: Kinase profiling PIM1
PIM1, sequence (P11309 whole entry, species assumed): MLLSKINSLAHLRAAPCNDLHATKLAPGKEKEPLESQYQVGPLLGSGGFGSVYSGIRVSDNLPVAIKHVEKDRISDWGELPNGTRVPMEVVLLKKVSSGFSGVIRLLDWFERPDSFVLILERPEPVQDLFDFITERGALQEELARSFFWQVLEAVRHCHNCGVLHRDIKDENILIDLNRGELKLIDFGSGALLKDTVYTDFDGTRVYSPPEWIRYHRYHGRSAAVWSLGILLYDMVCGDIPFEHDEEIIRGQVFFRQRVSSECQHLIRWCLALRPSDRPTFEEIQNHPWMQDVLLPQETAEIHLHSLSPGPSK
Excerpt: as §1

PRK2 = PRK2 (Homo sapiens, UniProt Q16513); experiment: Kinase profiling PRK2
PRK2, sequence (Q16513 whole entry, species assumed): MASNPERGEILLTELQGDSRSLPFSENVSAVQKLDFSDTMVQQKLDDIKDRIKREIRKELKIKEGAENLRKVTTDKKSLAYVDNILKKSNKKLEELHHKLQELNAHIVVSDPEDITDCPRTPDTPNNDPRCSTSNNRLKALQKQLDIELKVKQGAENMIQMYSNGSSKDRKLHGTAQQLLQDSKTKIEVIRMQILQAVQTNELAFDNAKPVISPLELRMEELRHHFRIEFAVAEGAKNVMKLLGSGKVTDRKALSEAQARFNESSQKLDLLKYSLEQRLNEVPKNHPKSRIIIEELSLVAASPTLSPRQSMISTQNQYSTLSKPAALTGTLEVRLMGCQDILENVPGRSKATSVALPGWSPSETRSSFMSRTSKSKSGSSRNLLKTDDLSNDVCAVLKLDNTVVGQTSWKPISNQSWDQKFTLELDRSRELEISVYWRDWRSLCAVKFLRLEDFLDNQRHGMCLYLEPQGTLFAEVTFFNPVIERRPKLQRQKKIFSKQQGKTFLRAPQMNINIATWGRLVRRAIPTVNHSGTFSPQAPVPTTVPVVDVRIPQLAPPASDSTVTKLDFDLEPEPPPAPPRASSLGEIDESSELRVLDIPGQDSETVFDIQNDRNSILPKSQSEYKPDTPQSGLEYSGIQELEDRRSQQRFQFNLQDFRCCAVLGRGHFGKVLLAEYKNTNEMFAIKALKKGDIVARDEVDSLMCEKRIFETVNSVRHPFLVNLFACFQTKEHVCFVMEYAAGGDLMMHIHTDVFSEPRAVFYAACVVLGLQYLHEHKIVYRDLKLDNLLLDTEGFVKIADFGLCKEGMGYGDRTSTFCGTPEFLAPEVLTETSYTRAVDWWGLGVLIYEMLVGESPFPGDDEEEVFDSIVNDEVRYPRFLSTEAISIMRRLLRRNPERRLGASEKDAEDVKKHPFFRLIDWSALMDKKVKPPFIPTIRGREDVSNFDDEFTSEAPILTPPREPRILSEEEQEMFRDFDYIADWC
Excerpt: as §1

IRAK4 = target: T2, IRAK4 (Homo sapiens, UniProt Q9NWZ3); experiment: Kinase profiling IRAK4
T2 sequence (Q9NWZ3 1-460): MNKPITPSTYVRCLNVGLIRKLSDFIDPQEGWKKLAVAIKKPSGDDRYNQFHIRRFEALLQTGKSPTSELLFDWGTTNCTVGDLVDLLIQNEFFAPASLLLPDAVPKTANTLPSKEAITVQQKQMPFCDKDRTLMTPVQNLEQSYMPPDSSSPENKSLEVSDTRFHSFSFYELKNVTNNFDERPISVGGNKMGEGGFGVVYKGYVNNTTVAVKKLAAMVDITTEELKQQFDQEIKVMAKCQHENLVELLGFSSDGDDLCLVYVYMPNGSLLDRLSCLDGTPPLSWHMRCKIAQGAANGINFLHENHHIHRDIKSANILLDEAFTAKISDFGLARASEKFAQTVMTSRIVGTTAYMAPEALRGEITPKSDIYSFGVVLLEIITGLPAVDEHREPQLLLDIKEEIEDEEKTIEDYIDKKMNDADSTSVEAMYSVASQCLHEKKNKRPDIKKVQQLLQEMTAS
Excerpt: as §1

PDK1 = target: T3, PDK1 (Homo sapiens, UniProt O15530); experiment: Kinase profiling PDK1
T3 sequence (O15530 1-556): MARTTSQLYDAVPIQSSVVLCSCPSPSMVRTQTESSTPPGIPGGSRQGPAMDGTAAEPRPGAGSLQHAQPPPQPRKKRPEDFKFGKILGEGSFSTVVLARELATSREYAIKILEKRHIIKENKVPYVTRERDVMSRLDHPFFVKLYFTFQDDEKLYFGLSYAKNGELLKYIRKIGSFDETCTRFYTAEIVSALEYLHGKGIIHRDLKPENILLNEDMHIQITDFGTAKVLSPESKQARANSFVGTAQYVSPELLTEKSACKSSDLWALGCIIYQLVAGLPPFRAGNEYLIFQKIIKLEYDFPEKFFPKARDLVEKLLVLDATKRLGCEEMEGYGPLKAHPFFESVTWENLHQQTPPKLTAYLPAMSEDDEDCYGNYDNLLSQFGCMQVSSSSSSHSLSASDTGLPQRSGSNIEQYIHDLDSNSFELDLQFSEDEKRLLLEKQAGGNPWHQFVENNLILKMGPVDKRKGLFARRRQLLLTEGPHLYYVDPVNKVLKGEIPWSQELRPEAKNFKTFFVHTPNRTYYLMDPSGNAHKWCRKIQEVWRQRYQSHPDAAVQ
Excerpt: as §1

MARK3 = MARK3 (Homo sapiens, UniProt P27448); experiment: Kinase profiling MARK3
Excerpt: as §1

p38b MAPK = p38b MAPK (Homo sapiens, UniProt Q15759); experiment: Kinase profiling p38b MAPK; conditions: for residual kinase activity, p38b MAPK: 100 micromolar inhibitor concentration, 100 is no change
p38b MAPK, sequence (Q15759 whole entry): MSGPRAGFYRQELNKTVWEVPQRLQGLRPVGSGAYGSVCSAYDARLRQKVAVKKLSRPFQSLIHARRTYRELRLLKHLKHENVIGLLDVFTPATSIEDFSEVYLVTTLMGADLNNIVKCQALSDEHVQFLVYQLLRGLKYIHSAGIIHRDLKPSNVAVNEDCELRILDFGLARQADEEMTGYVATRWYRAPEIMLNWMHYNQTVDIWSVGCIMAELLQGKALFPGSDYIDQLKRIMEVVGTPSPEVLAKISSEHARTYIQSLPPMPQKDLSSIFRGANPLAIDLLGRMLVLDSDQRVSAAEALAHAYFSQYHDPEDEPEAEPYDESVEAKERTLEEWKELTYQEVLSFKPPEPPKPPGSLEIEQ
Excerpt: as §1

SRPK1 = SRPK1 (Homo sapiens, UniProt Q96SB4); experiment: Kinase profiling SRPK1
Excerpt: as §1

RIPK2 = RIPK2 (Homo sapiens, UniProt O43353); experiment: Kinase profiling RIPK2
RIPK2, sequence (O43353 whole entry, species assumed): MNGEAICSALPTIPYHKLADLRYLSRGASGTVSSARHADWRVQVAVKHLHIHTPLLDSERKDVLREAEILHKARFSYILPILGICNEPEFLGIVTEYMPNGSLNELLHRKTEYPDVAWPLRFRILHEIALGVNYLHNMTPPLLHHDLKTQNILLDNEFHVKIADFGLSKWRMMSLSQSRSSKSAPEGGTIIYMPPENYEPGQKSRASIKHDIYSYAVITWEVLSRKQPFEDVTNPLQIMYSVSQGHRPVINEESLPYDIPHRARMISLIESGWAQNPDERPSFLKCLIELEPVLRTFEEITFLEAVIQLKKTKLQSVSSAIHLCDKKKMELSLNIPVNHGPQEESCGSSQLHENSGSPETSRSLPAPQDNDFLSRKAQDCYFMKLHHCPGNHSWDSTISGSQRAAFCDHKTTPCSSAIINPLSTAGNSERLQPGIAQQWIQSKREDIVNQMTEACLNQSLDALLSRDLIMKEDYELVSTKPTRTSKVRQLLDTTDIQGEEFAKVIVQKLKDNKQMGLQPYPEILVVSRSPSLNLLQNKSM
Excerpt: as §1

VEG-FR = experiment: Kinase profiling VEG-FR
Excerpt: as §1

p38a MAPK = p38a MAPK (Homo sapiens, UniProt Q16539); experiment: Kinase profiling p38a MAPK
p38a MAPK, sequence (Q16539 whole entry): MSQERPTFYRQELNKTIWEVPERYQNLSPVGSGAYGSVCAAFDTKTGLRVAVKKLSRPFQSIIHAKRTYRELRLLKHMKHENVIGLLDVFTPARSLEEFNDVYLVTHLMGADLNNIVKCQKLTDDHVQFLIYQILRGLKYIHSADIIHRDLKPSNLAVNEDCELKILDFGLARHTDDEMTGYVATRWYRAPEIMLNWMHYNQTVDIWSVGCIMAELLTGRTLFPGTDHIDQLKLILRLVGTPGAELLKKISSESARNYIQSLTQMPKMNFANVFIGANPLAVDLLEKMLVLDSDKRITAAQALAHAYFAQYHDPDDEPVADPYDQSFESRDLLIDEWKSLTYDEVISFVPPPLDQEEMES
Excerpt: as §1

BTK = BTK (Homo sapiens, UniProt Q06187); experiment: Kinase profiling BTK
BTK, sequence (Q06187 whole entry, species assumed): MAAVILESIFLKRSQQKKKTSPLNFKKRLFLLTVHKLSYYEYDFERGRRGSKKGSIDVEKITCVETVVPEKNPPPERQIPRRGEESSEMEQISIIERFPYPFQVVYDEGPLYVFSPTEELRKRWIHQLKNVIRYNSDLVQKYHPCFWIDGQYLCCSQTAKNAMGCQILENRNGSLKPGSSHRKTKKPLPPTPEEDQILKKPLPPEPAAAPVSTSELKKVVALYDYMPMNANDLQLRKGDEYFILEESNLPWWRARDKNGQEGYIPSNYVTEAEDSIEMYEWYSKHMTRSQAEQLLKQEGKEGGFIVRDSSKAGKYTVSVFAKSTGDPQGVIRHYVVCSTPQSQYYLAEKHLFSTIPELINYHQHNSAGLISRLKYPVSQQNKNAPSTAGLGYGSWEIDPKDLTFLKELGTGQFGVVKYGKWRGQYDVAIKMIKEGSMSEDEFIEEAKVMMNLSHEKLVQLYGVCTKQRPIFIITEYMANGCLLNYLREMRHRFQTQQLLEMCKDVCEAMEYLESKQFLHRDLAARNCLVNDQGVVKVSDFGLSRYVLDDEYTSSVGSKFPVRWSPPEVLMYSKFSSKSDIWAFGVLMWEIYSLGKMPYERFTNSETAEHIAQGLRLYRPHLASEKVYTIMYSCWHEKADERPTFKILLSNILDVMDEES
Excerpt: as §1

[1] = 100 micromolar inhibitor concentration, 100 is no change
[2] = 100 micromolar inhibitor, 100 = no change

JNK3, sequence (P53779 whole entry, species assumed): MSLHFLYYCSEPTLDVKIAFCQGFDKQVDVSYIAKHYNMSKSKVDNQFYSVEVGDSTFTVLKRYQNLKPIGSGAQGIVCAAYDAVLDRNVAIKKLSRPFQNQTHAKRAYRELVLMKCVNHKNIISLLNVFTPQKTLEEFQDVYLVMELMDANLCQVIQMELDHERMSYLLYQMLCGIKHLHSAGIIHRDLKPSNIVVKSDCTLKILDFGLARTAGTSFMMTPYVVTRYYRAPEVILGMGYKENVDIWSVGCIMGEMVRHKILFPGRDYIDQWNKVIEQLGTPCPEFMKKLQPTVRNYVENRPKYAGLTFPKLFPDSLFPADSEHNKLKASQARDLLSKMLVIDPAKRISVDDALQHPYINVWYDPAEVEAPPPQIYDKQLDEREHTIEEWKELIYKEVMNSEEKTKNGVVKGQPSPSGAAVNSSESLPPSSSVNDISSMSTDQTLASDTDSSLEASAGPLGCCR

SMILES | residual kinase activity, JNK3 (JNK3) | residual kinase activity, MKK2 (MKK2) | residual kinase activity, SGK1 (SGK1; [1]) | residual kinase activity, MKK1 (MKK1; [1]) | residual kinase activity, PKBa (PKBa; [1]) | residual kinase activity, PRK2 (PRK2; [1]) | residual kinase activity, PDK1 (PDK1; [1]) | residual kinase activity, p38b MAPK (p38b MAPK) | residual kinase activity, p38a MAPK (p38a MAPK; [1]) | other results
CC(=O)Nc1nc2cc(O)ccc2s1 [Compound 01-66, N-(5-hydroxybenzo[d]thiazol-2-yl)acetamide] |  |  |  |  |  |  |  |  |  | remaining activity at 100 µM (JNK3; read-out: residual kinase activity, JNK3): 37%; remaining activity at 100 µM (Src; read-out: residual kinase activity, Src): 45%; remaining activity at 100 µM (TrkA; read-out: residual kinase activity, TrkA): 57%; remaining activity at 100 µM (MKK2; read-out: residual kinase activity, MKK2): 42%; remaining activity at 100 µM (SGK1; read-out: residual kinase activity, SGK1): 77%; remaining activity at 100 µM (MKK1; read-out: residual kinase activity, MKK1): 31%; remaining activity at 100 µM (EF2K; read-out: residual kinase activity, EF2K): 76%; remaining activity at 100 µM (PKBa; read-out: residual kinase activity, PKBa): 87%; remaining activity at 100 µM (PIM1; read-out: residual kinase activity, PIM1): 12%; remaining activity at 100 µM (PRK2; read-out: residual kinase activity, PRK2): 67%; remaining activity at 100 µM (IRAK4; read-out: residual kinase activity, IRAK4): 18%; remaining activity at 100 µM (PDK1; read-out: residual kinase activity, PDK1): 69%; remaining activity at 100 µM (MARK3; read-out: residual kinase activity, MARK3): 34%; remaining activity at 100 µM (p38b MAPK; read-out: residual kinase activity, p38b MAPK): 92%; remaining activity at 100 µM (SRPK1; read-out: residual kinase activity, SRPK1): 59%; remaining activity at 100 µM (RIPK2; read-out: residual kinase activity, RIPK2): 29%; residual kinase activity, VEG-FR (VEG-FR; [1]): 24; remaining activity at 100 µM (p38a MAPK; read-out: residual kinase activity, p38a MAPK): 84%; remaining activity at 100 µM (BTK; read-out: residual kinase activity, BTK): 67%
CC(=O)Nc1cccc(C(=O)Nc2nc3ccc(O)cc3s2)c1 [Compound 03-58] | 51 | 86 | 41 | 52 | 92 | 36 | 96 | 75 | 81 | 
CC(=O)NC(C)C(=O)Nc1nc2ccc(C(F)(F)F)cc2s1 (centres unmarked) [Compound 03-80] | 79 | 75 | 55 | 80 | 105 | 79 | 86 | 77 | 79 | 
CC(=O)Nc1ccccc1C(=O)Nc1nc2ccc(O)cc2s1 [Compound 08-39] | 53 | 78 | 35 | 106 | 84 | 42 | 66 | 96 | 96 | 
COc1cccc(NC(=O)Nc2nc3cc(O)ccc3s2)c1 [Compound 13-62] |  |  |  |  |  |  |  |  |  | residual kinase activity, Src (Src; [2]): 7; residual kinase activity, TrkA (TrkA; [2]): 9; residual kinase activity, SGK1 (SGK1; [2]): 21; residual kinase activity, MKK1 (MKK1; [2]): 15; residual kinase activity, EF2K (EF2K; [2]): 85; residual kinase activity, PKBa (PKBa; [2]): 66; residual kinase activity, PIM1 (PIM1; [2]): 14; residual kinase activity, PRK2 (PRK2; [2]): 40; residual kinase activity, IRAK4 (IRAK4; [2]): 17; residual kinase activity, PDK1 (PDK1; [2]): 77; residual kinase activity, MARK3 (MARK3; [2]): 12; residual kinase activity, SRPK1 (SRPK1; [2]): 3; residual kinase activity, RIPK2 (RIPK2; [2]): 6; residual kinase activity, VEG-FR (VEG-FR; [2]): 7; residual kinase activity, p38a MAPK (p38a MAPK; [2]): 21; residual kinase activity, BTK (BTK; [2]): 25
COc1ccc2sc(NC(=O)c3ccc(NC(C)=O)cc3)nc2c1 [MS:LY-2-77] | 88 | 95 | 101 | 95 | 89 | 92 | 103 | 110 | 109 | 
COc1ccc2sc(NC(=O)c3cccc(NC(C)=O)c3)nc2c1 [MS:LY-2-85] | 62 | 80 | 75 | 83 | 90 | 66 | 80 | 92 | 89 | 
CC(=O)Nc1ccc(C(=O)Nc2nc3cc(O)ccc3s2)cc1 [MS:LY-2-87] | 66 | 73 | 43 | 69 | 86 | 67 | 69 | 82 | 73 | 
CC(=O)Nc1cccc(C(=O)Nc2nc3cc(O)ccc3s2)c1 [MS:LY-2-89] | 36 | 47 | 28 | 56 | 82 | 44 | 44 | 17 | 18 | 
